Tests used:
[1] = molecular target: Serine/threonine-protein kinase ATR (Homo sapiens, UniProt Q13535); assay: Inhibition of human recombinant FLAG-tagged full length ATR expressed in mammalian cell line co-expressing human recombinant cMyc-tagged full length ATRIP
[2] = Apparent volume of distribution in mouse at 2 mg/kg, iv or 10 mg/kg, po; format: ADME, organism-based; conditions: in vivo, read-out: Vz
Mus musculus = assay: AUC in mouse at 10 mg/kg, po; format: ADME, organism-based; conditions: in vivo
[3] = test system: Tyrosine-protein kinase ABL1 (Homo sapiens), P00519 [Y253F]; assay: Inhibition of recombinant human Abl Y253F mutant (27 to end residues) at 1 uM using EAIYAAPFAKKK as substrate after 40 mins in presence of [gamma-33P]ATP by scintillation counting method
[4] = test system: Tyrosine-protein kinase ABL1 (Homo sapiens), P00519 [M351T]; assay: Inhibition of recombinant human Abl M351T mutant (27 to end residues) at 1 uM using EAIYAAPFAKKK as substrate after 40 mins in presence of [gamma-33P]ATP by scintillation counting method
[5] = molecular target: Tyrosine-protein kinase Blk (Homo sapiens) (UniProt P51451); assay: Inhibition of recombinant full-length human Blk at 1 uM using poly(Glu,Tyr) 4:1 as substrate after 40 mins in presence of [gamma-33P]ATP by scintillation counting method
[6] = molecular target: Bone morphogenetic protein receptor type-2 (Homo sapiens) (UniProt Q13873); assay: Inhibition of recombinant human BMPR2 (172 to 734 residues) at 1 uM using myelin basic protein as substrate after 120 mins in presence of [gamma-33P]ATP by scintillation counting method
[7] = molecular target: CDK6/cyclin D3 (Homo sapiens) (UniProt P30281+Q00534); assay: Inhibition of recombinant full-length human CDK6/Cyclin D3 at 1 uM using histone H1 as substrate after 40 mins in presence of [gamma-33P]ATP by scintillation counting method; format: protein-complex assay
[8] = molecular target: Serine/threonine-protein kinase Chk2 (Homo sapiens) (UniProt O96017); assay: Inhibition of recombinant human CHK2 (5 to end residues) at 1 uM using KKKVSRSGLYRSPSMPENLNRPR as substrate after 40 mins in presence of [gamma-33P]ATP by scintillation counting method
[9] = molecular target: Serine/threonine-protein kinase 35 (Homo sapiens) (UniProt Q8TDR2); assay: Inhibition of recombinant full-length human CLIK1 at 1 uM using RSRSRSRSRSRSRSR as substrate after 40 mins in presence of [gamma-33P]ATP by scintillation counting method
[10] = molecular target: Serine/threonine-protein kinase DCLK3 (Homo sapiens) (UniProt Q9C098); assay: Inhibition of recombinant human DCAMKL3 (345 to end residues) at 1 uM using KKLNRTLSFAEPG as substrate after 40 mins in presence of [gamma-33P]ATP by scintillation counting method
[11] = molecular target: Serine/threonine-protein kinase 17B (Homo sapiens) (UniProt O94768); assay: Inhibition of recombinant full-length human DRAK2 at 1 uM using KKRPQRRYSNVF as substrate after 120 mins in presence of [gamma-33P]ATP by scintillation counting method
Serine/threonine-protein kinase 17B (Homo sapiens), sequence (O94768 whole entry): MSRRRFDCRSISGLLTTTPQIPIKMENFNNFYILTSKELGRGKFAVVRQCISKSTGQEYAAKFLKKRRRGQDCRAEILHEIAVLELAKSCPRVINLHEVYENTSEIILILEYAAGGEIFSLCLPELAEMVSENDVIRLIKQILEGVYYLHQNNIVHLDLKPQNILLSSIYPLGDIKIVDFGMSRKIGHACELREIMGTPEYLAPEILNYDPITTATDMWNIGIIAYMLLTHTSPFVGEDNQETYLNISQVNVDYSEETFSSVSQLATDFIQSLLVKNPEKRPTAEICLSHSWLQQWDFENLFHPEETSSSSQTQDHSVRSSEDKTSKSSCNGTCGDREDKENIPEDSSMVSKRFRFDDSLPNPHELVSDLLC

[12] = test system: Epidermal growth factor receptor (Homo sapiens), P00533 [T790M]; assay: Inhibition of recombinant human EGFR T790M mutant (696 to end residues) at 1 uM using GGMEDIYFEFMGGKKK as substrate after 40 mins in presence of [gamma-33P]ATP by scintillation counting method
Epidermal growth factor receptor (Homo sapiens), P00533 [T790M], sequence (P00533 whole entry T790M, the tested form may be a part): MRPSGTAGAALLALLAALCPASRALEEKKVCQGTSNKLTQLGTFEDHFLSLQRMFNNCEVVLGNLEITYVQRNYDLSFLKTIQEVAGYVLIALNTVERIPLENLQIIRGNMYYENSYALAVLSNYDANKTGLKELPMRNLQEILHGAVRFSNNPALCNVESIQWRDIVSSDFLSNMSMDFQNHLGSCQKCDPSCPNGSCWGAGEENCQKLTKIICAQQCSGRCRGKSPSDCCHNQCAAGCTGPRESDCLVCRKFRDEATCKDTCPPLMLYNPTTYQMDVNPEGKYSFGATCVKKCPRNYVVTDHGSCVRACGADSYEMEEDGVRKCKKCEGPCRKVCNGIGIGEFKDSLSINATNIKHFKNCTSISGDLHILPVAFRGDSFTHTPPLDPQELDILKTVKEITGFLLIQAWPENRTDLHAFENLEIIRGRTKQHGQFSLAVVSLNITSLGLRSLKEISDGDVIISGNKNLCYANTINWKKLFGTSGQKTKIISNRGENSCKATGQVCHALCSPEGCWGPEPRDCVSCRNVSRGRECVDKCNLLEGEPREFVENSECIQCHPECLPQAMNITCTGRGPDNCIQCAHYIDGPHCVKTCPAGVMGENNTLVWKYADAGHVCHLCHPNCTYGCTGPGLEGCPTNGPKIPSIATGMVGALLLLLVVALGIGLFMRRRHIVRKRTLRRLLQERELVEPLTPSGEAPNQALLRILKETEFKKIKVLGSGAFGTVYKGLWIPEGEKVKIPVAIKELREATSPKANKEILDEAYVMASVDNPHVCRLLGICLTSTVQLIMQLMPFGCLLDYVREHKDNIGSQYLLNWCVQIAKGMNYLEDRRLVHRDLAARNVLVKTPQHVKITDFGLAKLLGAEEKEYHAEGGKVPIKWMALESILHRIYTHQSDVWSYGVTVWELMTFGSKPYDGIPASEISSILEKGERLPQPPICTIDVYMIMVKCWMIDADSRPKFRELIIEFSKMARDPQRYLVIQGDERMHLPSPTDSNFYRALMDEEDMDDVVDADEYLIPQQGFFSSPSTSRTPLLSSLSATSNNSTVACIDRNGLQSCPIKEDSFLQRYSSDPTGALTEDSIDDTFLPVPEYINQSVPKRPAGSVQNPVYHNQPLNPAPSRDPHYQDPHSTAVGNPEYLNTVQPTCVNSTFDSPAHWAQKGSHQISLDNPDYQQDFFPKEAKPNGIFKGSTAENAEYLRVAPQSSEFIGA

[13] = molecular target: Ephrin type-A receptor 4 (Homo sapiens) (UniProt P54764); assay: Inhibition of recombinant human EPHA4 (601 to 892 residues) at 1 uM using poly(Glu,Tyr) 4:1 as substrate after 40 mins in presence of [gamma-33P]ATP by scintillation counting method
[14] = molecular target: Vascular endothelial growth factor receptor 3 (Homo sapiens) (UniProt P35916); assay: Inhibition of recombinant human Flt4 (800 to end residues) at 1 uM using GGEEEEYFELVKKKK as substrate after 40 mins in presence of [gamma-33P]ATP by scintillation counting method
[15] = molecular target: Tyrosine-protein kinase Fyn (Homo sapiens) (UniProt P06241); assay: Inhibition of recombinant full-length human Fyn at 1 uM using KVEKIGEGTYGVVYK as substrate after 40 mins in presence of [gamma-33P]ATP by scintillation counting method
[16] = molecular target: Homeodomain-interacting protein kinase 1 (Homo sapiens) (UniProt Q86Z02); assay: Inhibition of recombinant human HIPK1 (158 to 555 residues) at 1 uM using myelin basic protein as substrate after 40 mins in presence of [gamma-33P]ATP by scintillation counting method
Homeodomain-interacting protein kinase 1 (Homo sapiens), sequence (Q86Z02 whole entry, looked up, the tested form may be a part): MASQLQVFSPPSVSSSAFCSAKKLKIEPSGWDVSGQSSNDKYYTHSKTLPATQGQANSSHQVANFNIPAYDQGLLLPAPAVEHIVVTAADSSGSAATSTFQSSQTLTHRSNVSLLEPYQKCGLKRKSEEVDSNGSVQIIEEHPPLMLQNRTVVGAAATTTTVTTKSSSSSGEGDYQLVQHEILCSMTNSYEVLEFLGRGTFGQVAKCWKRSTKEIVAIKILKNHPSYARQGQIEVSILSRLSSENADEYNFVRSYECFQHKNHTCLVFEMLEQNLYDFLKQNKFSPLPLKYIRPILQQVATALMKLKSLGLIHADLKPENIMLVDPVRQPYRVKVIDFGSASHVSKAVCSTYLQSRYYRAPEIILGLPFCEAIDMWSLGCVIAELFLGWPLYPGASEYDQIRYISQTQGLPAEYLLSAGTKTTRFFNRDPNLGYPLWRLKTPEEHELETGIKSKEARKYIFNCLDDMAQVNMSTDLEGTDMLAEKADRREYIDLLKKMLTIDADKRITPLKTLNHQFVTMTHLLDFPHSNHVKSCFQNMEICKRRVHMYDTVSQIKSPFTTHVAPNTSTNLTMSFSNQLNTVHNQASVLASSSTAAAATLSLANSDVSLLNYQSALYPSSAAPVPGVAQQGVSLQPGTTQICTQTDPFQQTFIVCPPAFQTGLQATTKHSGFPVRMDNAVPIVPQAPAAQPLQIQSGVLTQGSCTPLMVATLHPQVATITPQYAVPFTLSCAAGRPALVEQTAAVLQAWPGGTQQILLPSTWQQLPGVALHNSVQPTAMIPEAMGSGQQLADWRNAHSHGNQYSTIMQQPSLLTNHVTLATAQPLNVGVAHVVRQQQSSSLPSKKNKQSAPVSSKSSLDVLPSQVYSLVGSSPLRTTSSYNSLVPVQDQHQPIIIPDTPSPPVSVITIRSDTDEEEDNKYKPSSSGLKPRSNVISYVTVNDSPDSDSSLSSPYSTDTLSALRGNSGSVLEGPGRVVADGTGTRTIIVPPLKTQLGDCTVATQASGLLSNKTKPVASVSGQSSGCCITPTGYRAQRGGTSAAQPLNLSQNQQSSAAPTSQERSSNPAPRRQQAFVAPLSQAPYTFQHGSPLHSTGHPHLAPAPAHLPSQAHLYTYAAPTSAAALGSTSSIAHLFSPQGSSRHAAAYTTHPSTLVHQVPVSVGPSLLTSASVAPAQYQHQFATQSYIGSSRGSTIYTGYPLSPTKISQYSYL

[17] = molecular target: Myosin-IIIb (Homo sapiens) (UniProt Q8WXR4); assay: Inhibition of recombinant human MYO3B (1 to 326 residues) at 1 uM using RLGRDKYKTLRQIRQ as substrate after 40 mins in presence of [gamma-33P]ATP by scintillation counting method
Myosin-IIIb (Homo sapiens), sequence (Q8WXR4 whole entry, the tested form may be a part): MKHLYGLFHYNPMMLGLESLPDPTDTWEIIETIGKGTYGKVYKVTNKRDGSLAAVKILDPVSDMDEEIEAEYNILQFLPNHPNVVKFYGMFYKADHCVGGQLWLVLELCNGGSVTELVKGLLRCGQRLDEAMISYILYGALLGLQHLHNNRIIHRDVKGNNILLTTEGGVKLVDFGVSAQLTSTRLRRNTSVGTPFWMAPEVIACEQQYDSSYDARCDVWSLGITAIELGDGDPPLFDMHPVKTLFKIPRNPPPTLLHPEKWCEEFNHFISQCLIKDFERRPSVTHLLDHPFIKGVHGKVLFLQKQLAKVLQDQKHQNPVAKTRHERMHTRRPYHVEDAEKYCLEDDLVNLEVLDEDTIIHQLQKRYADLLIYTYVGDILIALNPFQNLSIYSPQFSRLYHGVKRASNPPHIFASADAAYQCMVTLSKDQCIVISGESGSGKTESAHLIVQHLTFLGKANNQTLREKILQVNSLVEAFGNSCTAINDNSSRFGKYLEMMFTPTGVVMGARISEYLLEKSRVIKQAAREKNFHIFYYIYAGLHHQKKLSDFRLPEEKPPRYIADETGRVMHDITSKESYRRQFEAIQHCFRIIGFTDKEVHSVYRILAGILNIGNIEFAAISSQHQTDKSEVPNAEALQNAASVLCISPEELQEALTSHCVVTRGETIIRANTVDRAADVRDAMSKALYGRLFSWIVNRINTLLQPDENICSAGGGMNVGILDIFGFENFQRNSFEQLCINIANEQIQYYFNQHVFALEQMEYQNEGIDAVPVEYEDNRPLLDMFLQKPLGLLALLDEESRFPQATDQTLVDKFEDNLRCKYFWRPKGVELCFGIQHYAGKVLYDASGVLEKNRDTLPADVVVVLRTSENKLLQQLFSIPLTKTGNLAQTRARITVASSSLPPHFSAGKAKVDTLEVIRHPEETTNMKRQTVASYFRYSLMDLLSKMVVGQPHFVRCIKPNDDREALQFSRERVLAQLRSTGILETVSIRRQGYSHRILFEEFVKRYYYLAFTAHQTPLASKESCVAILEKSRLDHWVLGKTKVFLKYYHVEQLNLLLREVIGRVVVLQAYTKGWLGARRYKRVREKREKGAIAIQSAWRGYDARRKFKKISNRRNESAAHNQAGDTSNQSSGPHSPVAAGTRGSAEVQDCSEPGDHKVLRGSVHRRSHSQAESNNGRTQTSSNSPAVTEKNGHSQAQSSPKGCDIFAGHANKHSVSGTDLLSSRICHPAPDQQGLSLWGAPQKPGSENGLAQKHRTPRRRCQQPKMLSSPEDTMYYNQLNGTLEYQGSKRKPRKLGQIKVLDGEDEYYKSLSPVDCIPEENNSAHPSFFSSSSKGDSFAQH

[18] = molecular target: PAS domain-containing serine/threonine-protein kinase (Homo sapiens) (UniProt Q96RG2); assay: Inhibition of recombinant human PASK (995 to end residues) at 1 uM using KKLNRTLSFAEPG as substrate after 40 mins in presence of [gamma-33P]ATP by scintillation counting method
[19] = molecular target: Phosphorylase b kinase gamma catalytic chain, liver/testis isoform (Homo sapiens) (UniProt P15735); assay: Inhibition of recombinant human PhKgamma2 (1 to 301 residues) at 1 uM using KKLNRTLSFAEPG as substrate after 40 mins in presence of [gamma-33P]ATP by scintillation counting method
Phosphorylase b kinase gamma catalytic chain, liver/testis isoform (Homo sapiens), sequence (P15735 whole entry, the tested form may be a part, canonical isoform): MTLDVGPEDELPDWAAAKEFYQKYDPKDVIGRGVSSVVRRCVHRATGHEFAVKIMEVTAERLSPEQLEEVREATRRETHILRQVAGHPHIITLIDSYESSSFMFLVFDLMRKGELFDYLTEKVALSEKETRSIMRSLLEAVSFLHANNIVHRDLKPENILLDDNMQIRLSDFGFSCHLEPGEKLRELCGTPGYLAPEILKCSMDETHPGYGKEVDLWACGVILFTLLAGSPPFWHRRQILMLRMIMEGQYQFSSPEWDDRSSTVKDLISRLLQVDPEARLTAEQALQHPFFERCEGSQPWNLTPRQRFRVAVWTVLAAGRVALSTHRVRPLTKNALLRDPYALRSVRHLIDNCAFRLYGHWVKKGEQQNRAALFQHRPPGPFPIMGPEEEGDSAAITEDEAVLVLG

[20] = molecular target: PI3-kinase p110-alpha/p85-alpha (Homo sapiens) (UniProt P27986+P42336); assay: Inhibition of recombinant full-length human p110a/p85a at 1 uM using phosphatidylinositol 4,5-bisphosphate as substrate after 40 mins in presence of [gamma-33P]ATP by scintillation counting method; format: protein-complex assay
[21] = molecular target: Serine/threonine-protein kinase pim-1 (Homo sapiens) (UniProt P11309); assay: Inhibition of recombinant full-length human PIM1 at 1 uM using KKRNRTLTV as substrate after 40 mins in presence of [gamma-33P]ATP by scintillation counting method
[22] = test system: Proto-oncogene tyrosine-protein kinase receptor Ret (Homo sapiens), P07949 [V804M]; assay: Inhibition of recombinant human RET V804M mutant (658 to end residues) at 1 uM using KKKVSRSGLYRSPSMPENLNRPR as substrate after 40 mins in presence of [gamma-33P]ATP by scintillation counting method
[23] = molecular target: Wee1-like protein kinase (Homo sapiens) (UniProt P30291); assay: Inhibition of recombinant human Wee1 (214 to end residues) at 1 uM using LSNLYHQGKFLQTFCGSPLYRRR as substrate after 40 mins in presence of [gamma-33P]ATP by scintillation counting method
[24] = molecular target: Protein-tyrosine kinase 6 (Homo sapiens) (UniProt Q13882); assay: Inhibition of recombinant full-length human BRK at 10 uM using poly(Glu,Tyr) 4:1 as substrate after 40 mins in presence of [gamma-33P]ATP by scintillation counting method
Protein-tyrosine kinase 6 (Homo sapiens), sequence (Q13882 whole entry, looked up): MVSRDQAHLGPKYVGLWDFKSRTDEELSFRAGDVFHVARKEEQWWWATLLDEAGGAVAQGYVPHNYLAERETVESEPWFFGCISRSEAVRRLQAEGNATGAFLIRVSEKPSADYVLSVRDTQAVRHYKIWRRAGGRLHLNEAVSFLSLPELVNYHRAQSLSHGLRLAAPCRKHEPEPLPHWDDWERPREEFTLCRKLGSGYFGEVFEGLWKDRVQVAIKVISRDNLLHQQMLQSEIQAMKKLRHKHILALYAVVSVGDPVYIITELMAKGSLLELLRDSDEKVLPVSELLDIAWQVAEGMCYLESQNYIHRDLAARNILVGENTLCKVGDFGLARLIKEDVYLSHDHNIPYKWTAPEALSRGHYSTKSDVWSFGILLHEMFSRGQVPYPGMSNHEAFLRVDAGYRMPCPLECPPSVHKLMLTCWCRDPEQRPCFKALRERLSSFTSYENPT

CS(=O)(=O)c1ccc(-n2nc(-c3cnc4[nH]ccc4c3)c3c(N)ncnc32)cc1
IC50 [1]: 66 nM
Vd [2]: 2.15 L/kg
AUC (Mus musculus): 0.212 µM·h
inhibition [3]: 85%
inhibition [4]: 77%
inhibition [5]: 40%
inhibition [6]: 2%
inhibition [7]: -6%
inhibition [8]: -3%
inhibition [9]: 3%
inhibition [10]: -8%
inhibition [11]: 7%
inhibition [12]: 22%
inhibition [13]: 1%
inhibition [14]: 91%
inhibition [15]: 90%
inhibition [16]: -2%
inhibition [17]: 5%
inhibition [18]: -6%
inhibition [19]: 16%
inhibition [20]: 6%
inhibition [21]: -2%
inhibition [22]: 14%
inhibition [23]: 1%
inhibition [24]: 102%

Source: ChEMBL document CHEMBL4190187, “Discovery of pyrazolopyrimidine derivatives as novel inhibitors of ataxia telangiectasia and rad3 related protein (ATR)” (Bioorg Med Chem Lett, 2017)
